The source of these data is patent US7915270B2, “Oxazole ketones as modulators of fatty acid amide hydrolase” (The Scripps Research Institute, priority 2006, dated 2011).

The target of one data set is T1, Rat FAAH (Rattus norvegicus, UniProt P97612).
T1 construct: expressed in transfected cells
T1 sequence (P97612 1-579): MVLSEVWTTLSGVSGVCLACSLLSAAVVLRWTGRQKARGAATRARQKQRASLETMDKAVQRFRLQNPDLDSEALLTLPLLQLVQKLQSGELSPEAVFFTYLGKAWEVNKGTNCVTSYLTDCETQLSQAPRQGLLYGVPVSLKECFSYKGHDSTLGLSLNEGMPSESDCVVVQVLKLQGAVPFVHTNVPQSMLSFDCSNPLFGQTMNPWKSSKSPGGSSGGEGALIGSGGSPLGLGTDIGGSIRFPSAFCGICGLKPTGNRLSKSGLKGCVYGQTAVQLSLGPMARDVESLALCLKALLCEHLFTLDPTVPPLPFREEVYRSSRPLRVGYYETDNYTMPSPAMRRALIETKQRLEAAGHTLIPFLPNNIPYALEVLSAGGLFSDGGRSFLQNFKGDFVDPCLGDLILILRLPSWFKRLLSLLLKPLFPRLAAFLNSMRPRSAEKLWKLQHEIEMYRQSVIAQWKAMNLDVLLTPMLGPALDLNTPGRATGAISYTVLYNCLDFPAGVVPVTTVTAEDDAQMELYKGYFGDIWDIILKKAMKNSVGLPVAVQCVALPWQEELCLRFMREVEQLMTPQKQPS
The data set can be described thus: Assay Method 2: FAAH assay, 3H-anandamide hydrolysis in cell homogenate (SK-N-MC cells transfected with rat FAAH). It is filed as biochemical. The note with it: 3H-AEA 80 nM, rt 1 h, pH 9. On the procedure:
A. Transfection of Cells with Rat FAAH
(§1) A 10-cm tissue culture dish with a confluent monolayer of SK—N-MC cells was split 2 days (d) prior to transfection. Using sterile technique, the media was removed and the cells were detached from the dish by the addition of trypsin. One fifth of the cells were then placed onto a new 10-cm dish. Cells were grown in a 37° C. incubator with 5% CO2 in Minimal Essential Media Eagle with 10% Fetal Bovine Serum. After 2 d, cells were approximately 80% confluent. These cells were removed from the dish with trypsin and pelleted in a clinical centrifuge. The pellet was re-suspended in 400 μL complete media and transferred to an electroporation cuvette with a 0.4 cm gap between the electrodes. Supercoiled rat FAAH cDNA (1 μg) was added to the cells and mixed. The voltage for the electroporation was set at 0.25 kV, and the capacitance was set at 960 μF. After electroporation, the cells were diluted into complete media (10 mL) and plated onto four 10-cm dishes. Because of the variability in the efficiency of electroporation, four different concentrations of cells were plated. The ratios used were 1:20, 1:10, and 1:5, with the remainder of the cells being added to the fourth dish. The cells were allowed to recover for 24 h before adding the selection media (complete media with 600 μg/mL G418). After 10 d, dishes were analyzed for surviving colonies of cells. Dishes with well-isolated colonies were used. Cells from individual colonies were isolated and tested.
The assay mixture consisted of 50 μL of the cell homogenate, 10 μL of the test compound, and 40 μL of anandamide [1-^3H-ethanolamine] (^3H-AEA, Perkin-Elmer, 10.3 Ci/mmol), which was added last, for a final tracer concentration of 80 nM. The reaction mixture was incubated at rt for 1 h. During the incubation, 96-well Multiscreen filter plates (catalog number MAFCNOB50; Millipore, Bedford, Mass., USA) were loaded with 25 μL of activated charcoal (Multiscreen column loader, catalog number MACL09625, Millipore) and washed once with 100 μL of MeOH. […] After the 1 h incubation, 60 μL of the reaction mixture were transferred to the charcoal plates, which were then assembled on top of the DYNEX plates using Centrifuge Alignment Frames (catalog number MACF09604, Millipore). The unbound labeled ethanolamine was centrifuged through to the bottom plate (5 min at 2000 rpm), which was preloaded with the scintillant, as described above. The plates were sealed and left at rt for 1 h before counting on a Hewlett Packard TopCount.

In data set [1] the target is T2, FAAH (Homo sapiens, UniProt O00519).
T2 sequence (O00519 1-579): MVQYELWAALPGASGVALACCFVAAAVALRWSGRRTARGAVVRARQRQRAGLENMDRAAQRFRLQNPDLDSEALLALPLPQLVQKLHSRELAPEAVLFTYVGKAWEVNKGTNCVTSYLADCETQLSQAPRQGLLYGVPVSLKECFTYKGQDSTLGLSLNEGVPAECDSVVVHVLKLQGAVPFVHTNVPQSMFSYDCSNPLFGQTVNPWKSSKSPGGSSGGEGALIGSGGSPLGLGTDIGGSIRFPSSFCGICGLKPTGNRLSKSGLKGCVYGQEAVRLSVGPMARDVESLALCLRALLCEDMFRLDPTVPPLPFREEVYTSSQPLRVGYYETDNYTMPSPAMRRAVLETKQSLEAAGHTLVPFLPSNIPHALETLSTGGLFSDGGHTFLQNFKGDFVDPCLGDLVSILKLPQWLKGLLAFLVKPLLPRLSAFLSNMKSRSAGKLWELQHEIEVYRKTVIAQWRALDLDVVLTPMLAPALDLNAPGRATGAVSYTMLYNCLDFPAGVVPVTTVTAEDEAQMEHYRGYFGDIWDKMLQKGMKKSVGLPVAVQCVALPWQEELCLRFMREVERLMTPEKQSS
Nature of the data set: Assay Method 1B: FAAH assay, 3H-anandamide hydrolysis in cell homogenate (T84 or SK-N-MC cells transfected with human FAAH). Also noted: expressed in transfected cells. The note with it: 3H-AEA 80 nM, rt 1 h, pH 9. Type of data set: biochemical. The method, then:
as §1, with “Transfection of Cells with Human FAAH A 10-cm” for “A 10-cm”, “electrodes. Supercoiled human FAAH cDNA” for “electrodes. Supercoiled rat FAAH cDNA”, “and tested. […] The reaction mixture was incubated at rt for 1 h. During the incubation, 96-well Multiscreen filter plates (catalog number MAFCNOB50; Millipore, Bedford, Mass., USA) were loaded with 25 μL of activated charcoal (Multiscreen column loader, catalog number MACL09625, Millipore) and washed once with 100 μL of MeOH. Also during the incubation, 96-well DYNEX MicroLite plates (catalog number NL510410) were loaded with 100 μL of MicroScint40 (catalog number 6013641, Packard Bioscience, Meriden, Conn., USA). After the 1 h incubation, 60 μL of the reaction mixture were transferred to the charcoal plates, which were then assembled on top of the DYNEX plates using Centrifuge Alignment Frames (catalog number MACF09604, Millipore). The unbound labeled ethanolamine was centrifuged through to the bottom plate (5 min at 2000 rpm), which was preloaded with the scintillant, as described above. The plates were sealed and left at rt for 1 h before counting on a Hewlett Packard TopCount.” for “and tested.”

The target of data set [2] is T3, FAAH (Rattus norvegicus, UniProt P97612).
T3 sequence (P97612 1-579): T1 sequence (P97612 1-579)
The data set can be described thus: Assay Method 1A: FAAH enzyme assay, 14C-oleamide hydrolysis, solubilized liver plasma membrane extract.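 Also: ki obtained by Dixon analysis, taking the x-intercept of inhibitor concentration versus reciprocal rate plots at fixed substrate level and correcting for substrate concentration relative to Km.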
Protocol: Linear least squares fits were used for all reaction progress curves and R^2 values were consistently >0.97. […] Ki values were determined by the Dixon Method (x-intercepts of weighted linear fits of [I] versus 1/rate plots at constant substrate concentration, which were converted to Ki values using the formula Ki=−xint/[1+[S]/Km]).

Data set [3] in a line: Solubility determination in water. Type of data set: physicochemical. The note with it: thermodynamic from solid; in water at 5, 1 and 0.1 mg/mL; pH of resulting solutions 7-8.5. On the procedure:
Physical Chemical Properties
Solubility determinations were made by mixing the test compound in water at 5 mg/mL, 1 mg/mL, and 0.1 mg/mL concentrations. The pH of the resulting solutions was 7-8.5.

SMILES strings stand for the structures.

One may read the IC50 as the concentration that gives 50% inhibition. Higher therefore signals weaker potency. As a reminder, the Ki is a measure of affinity in units of concentration, obtained from inhibition or displacement. Read a high Ki as weaker binding. Take `O=C(CCCCCCc1ccccc1)c1ncc(-c2ccccc2[N+](=O)[O-])o1` [Example 1, 1-(5-(2-Nitrophenyl)oxazol-2-yl)-7-phenylheptan-1-one]: the concentration for half-maximal inhibition (IC50) against Rat FAAH was determined as 500 nM; against FAAH [1] it was 340 nM. The molecule further yielded an inhibition constant (Ki) on FAAH [2] of 125 nM.
For `O=C(CCCCCCc1ccccc1)c1ncc(-c2cccc([N+](=O)[O-])c2)o1` [Example 2, 1-(5-(3-Nitrophenyl)oxazol-2-yl)-7-phenylheptan-1-one], in that order: 500 nM, 50 nM and 28 nM.
For `COC(=O)c1ccccc1-c1cnc(C(=O)CCCCCCc2ccccc2)o1` [Example 22, Methyl 2-(2-(7-phenylheptanoyl)oxazol-5-yl)benzoate], in that order: 2200 nM, 260 nM and 60 nM.
For `O=C(CCCCCCc1ccccc1)c1ncc(-c2ccccc2O)o1` [Example 30, 1-(5-(2-Hydroxyphenyl)oxazol-2-yl)-7-phenylheptan-1-one], in that order: 3500 nM, 115 nM and 170 nM.
With `COC(=O)c1ccc(-c2cnc(C(=O)CCCCCCc3ccccc3)o2)o1` [Example 55, Methyl 5-(2-(7-phenylheptanoyl)oxazol-5-yl)furan-2-carboxylate], the IC50 at Rat FAAH came out at 20 nM; against FAAH [1] it was 11 nM. This molecule also gave a Ki at FAAH [2] of 6 nM.
As for `Nc1cccc(-c2cnc(C(=O)CCCCCCc3ccccc3)o2)c1` [Example 28, 1-(5-(3-Aminophenyl)oxazol-2-yl)-7-phenylheptan-1-one], the IC50 at Rat FAAH came out at 290 nM; on FAAH [1], 17 nM. Also, at FAAH [2], the affinity corresponds to a Ki of 19 nM.
The like results for `NS(=O)(=O)c1cccc(-c2cnc(C(=O)CCCCCCc3ccccc3)o2)c1` [Example 20, 3-(2-(7-Phenylheptanoyl)oxazol-5-yl)benzenesulfonamide] were, in that order, 27 nM, 4 nM and 2 nM.
For `O=C(CCCCCCc1ccccc1)c1ncc(-c2cccc(F)c2)o1` [Example 11, 1-(5-(3-Fluorophenyl)oxazol-2-yl)-7-phenylheptan-1-one], in that order: 6300 nM, 220 nM and 60 nM.
For `COc1cccc(-c2cnc(C(=O)CCCCCCc3ccccc3)o2)c1` [Example 14, 1-(5-(3-Methoxyphenyl)oxazol-2-yl)-7-phenylheptan-1-one], in that order: 4500 nM, 100 nM and 40 nM.
`O=C(CCCCCCc1ccccc1)c1ncc(-c2cc(=O)[nH]c(=O)[nH]2)o1` [Example 52, 6-(2-(7-Phenylheptanoyl)oxazol-5-yl)pyrimidine-2,4(1H,3H)-dione]: the IC50 came to 1.5 nM against Rat FAAH and 0.1 nM on FAAH [1]. The same molecule showed a Ki on FAAH [2] of 19 nM.
`COC(=O)c1cccc(-c2cnc(C(=O)CCCCCCc3ccccc3)o2)c1` [Example 23, Methyl 3-(2-(7-phenylheptanoyl)oxazol-5-yl)benzoate]: the IC50 at Rat FAAH is 100 nM; against FAAH [1], 15 nM. Moreover, the inhibitory constant (Ki) at FAAH [2] came out at 12 nM.
As to `NS(=O)(=O)c1ccc(-c2cnc(C(=O)CCCCCCc3ccccc3)o2)s1` [Example 59, 5-(2-(7-Phenylheptanoyl)oxazol-5-yl)thiophene-2-sulfonamide], the values for the half-maximal inhibitory concentration (IC50) on Rat FAAH and at FAAH [1] were 8 nM and 2 nM, respectively. At FAAH [2], this molecule returned a Ki of 3 nM.
Broadly, the solubility is the concentration that dissolves in the medium under given conditions. `O=C(O)c1ccc(-c2cnc(C(=O)CCCCCCc3ccccc3)o2)o1` [Example 56, 5-(2-(7-Phenylheptanoyl)oxazol-5-yl)furan-2-carboxylic acid]: the IC50 at Rat FAAH amounted to 2 nM; at FAAH [1], 0.8 nM. The solubility in data set [3] is greater than 5000 µg/mL. In addition, the Ki on FAAH [2] turned out to be 15 nM.
